The source of these data is ChEMBL document CHEMBL1156374, “Pestalone, a new antibiotic produced by a marine fungus in response to bacterial challenge” (2001).

≈ marks a conversion by molar mass, not a printed value.

What all share (type): functional
One test relates to Staphylococcus aureus. The experiment in a line: Antibacterial activity against methicillin-resistant Staphylococcus aureus.
For another test, the system named is Enterococcus faecium. The experiment in a line: Antibacterial activity against vancomycin-resistant Enterococcus faecium.
Test [1] in a line: Cytotoxicity against human NCI60 cells.

Take `COc1c(Cl)c(C)c(Cl)c(O)c1C(=O)c1c(C=O)c(O)cc(O)c1CC=C(C)C` [PESTALONE]: the MIC (in general, the lowest concentration that inhibits growth of the organism) with Staphylococcus aureus amounted to 0.037 µg/mL (≈ 0.0842 µM); against Enterococcus faecium, 0.078 µg/mL (≈ 0.178 µM). Further, in test [1], the GI50 (usually the concentration at which growth is held to half of that of the control) stood at 6 µM.
